The experiment has as its target human recombinant PARG (Homo sapiens (Human), UniProt Q86W56). Description: PARG Activity Assay. Type of experiment: biochemical. The note with it: recombinant human PARG 0.0185 nM, 1 hour pre-incubation, poly (ADP-ribose) substrate-coated plate, Abs 450. How it is done: In order to evaluate the PARG inhibitory activity of the present compound, the inhibitory activity of each test compound against human recombinant PARG was measured. The specific procedure is described below.
Test compound was dissolved in dimethyl sulfoxide and prepared a 10 mM stock solution.
PARG Activity Assay was performed in Streptavidin-coated 96-well plates. […] The substrate solution was added to the 96-well plate at the volume of 200 micro liter per well and incubated for 3 hours at room temperature. After the incubation, the substrate solution was discarded and assay plate was washed 4 times with 220 micro liter of PBS containing 0.1% Tween20 (PBST). […] The diluted enzyme solution was pre-incubated with compounds for 1 hour at room temperature in a 96-well plate and transferred 100 micro liter per well to the poly (ADP-ribose) substrate-coated assay plate. The plate was incubated for 1 hour at 25° C. and then washed 4 times with 220 micro liters of PBST. For the detection of non-digested poly (ADP-ribose) polymer on the plate, mouse anti-poly (ADP-ribose) antibody diluted with 0.2% BSA containing PBS was added 100 micro liters per well and incubated 1 hour at room temperature. Plate was washed 4 times with TBST and 100 micro liter of HRP-labeled anti-mouse Ig antibody was added to the wells. Plate was incubated for 30 minutes at room temperature and then washed 4 times with PBST. For the detection 100 micro liters of TMB substrate solution was added to the wells. After sufficient color development, reaction was stopped by addition of 50 micro liter of 0.2 M […]. The 450 nm absorbance (Abs 450) of each well was read with a micro plate reader. The assay was performed by duplicated and average of 2 independent assays were used for the determination of PARG inhibitor y activity.
Wells treated with dimethyl sulfoxide instead of test compound solution were designated as a Negative Control of assay
Wells treated with 0.2% BSA containing PBS instead of recombinant human PARG protein and with dimethyl sulfoxide instead of test compound solution were designated as a Positive Control of assay.
The PARG Inhibitory Activity (%) was determined by the following formulation.
PARG Inhibitory Activity (%)=[(AbsX−AbsA)/(AbsB−AbsA)]×100
(wherein, • AbsA is absorbance (Abs 450) of Negative Control wells • AbsB is absorbance (Abs 450) of Positive Control wells • AbsX is absorbance (Abs 450) of wells treated with test compound.)
In Table, Ex indicates an Example number shown below.
Sequence of human recombinant PARG (Q86W56 whole entry): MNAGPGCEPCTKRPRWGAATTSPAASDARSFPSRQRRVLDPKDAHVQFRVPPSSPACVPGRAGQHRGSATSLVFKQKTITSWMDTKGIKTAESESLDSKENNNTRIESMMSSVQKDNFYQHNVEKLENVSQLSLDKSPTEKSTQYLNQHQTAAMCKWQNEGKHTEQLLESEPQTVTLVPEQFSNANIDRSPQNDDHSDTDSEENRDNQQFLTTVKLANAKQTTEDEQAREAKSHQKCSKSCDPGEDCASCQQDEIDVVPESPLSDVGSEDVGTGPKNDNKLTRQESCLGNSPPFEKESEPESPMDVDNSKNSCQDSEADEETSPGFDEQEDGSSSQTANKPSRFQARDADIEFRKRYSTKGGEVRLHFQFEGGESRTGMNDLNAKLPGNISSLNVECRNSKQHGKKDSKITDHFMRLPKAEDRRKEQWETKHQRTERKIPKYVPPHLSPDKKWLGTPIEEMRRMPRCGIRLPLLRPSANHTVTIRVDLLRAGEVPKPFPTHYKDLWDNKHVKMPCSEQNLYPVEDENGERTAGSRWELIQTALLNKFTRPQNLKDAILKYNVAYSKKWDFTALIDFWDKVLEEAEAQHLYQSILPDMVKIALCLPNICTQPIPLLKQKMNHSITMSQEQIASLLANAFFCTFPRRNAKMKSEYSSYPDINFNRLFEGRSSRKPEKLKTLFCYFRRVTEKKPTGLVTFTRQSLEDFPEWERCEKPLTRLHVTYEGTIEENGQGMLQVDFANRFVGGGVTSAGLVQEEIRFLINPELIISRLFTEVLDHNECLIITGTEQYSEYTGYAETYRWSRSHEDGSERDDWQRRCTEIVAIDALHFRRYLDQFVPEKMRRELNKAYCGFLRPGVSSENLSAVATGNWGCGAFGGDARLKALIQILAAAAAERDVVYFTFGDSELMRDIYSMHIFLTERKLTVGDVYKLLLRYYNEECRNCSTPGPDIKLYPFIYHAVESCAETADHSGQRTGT
By IC50 is commonly meant the concentration that gives 50% inhibition. Consider `Cc1cc(Cn2c(=O)n(Cc3cnc(C)s3)c(=O)c3cc(S(=O)(=O)NC4(C)CC4)sc32)n(C)n1` [Ex 3], for which the IC50 came out at 29 nM.

For `Cc1ncc(Cn2c(=O)c3cc(S(=O)(=O)NC4(C)CC4)sc3n(Cc3ccc4[nH]ncc4c3)c2=O)s1` [Ex 4], the IC50 came out at 11 nM.

On to `Cc1ncc(Cn2c(=O)c3cc(S(=O)(=O)NC4(C)CC4)sc3n(Cc3ccc4cn[nH]c4c3)c2=O)s1` [Ex 5], for which the IC50 was 12 nM.

`Cc1ncc(Cn2c(=O)c3cc(S(=O)(=O)NC4(C)CC4)sc3n(CCOC3CNC3)c2=O)s1` [Ex 7]: the half-inhibitory concentration (IC50) is 210 nM.

In the case of `Cc1ncc(Cn2c(=O)c3cc(S(=O)(=O)NC4(C)CC4)sc3n(CCCN)c2=O)s1` [Ex 9], the half-maximal inhibitory concentration (IC50) is 1070 nM.

As to `Cc1ncc(Cn2c(=O)c3cc(S(=O)(=O)NC4(C)CC4)sc3n(Cc3cnc4[nH]ccc4c3)c2=O)s1` [Ex 10], the IC50 amounted to 16 nM.

Consider `Cc1ncc(Cn2c(=O)c3cc(S(=O)(=O)NC4(C)CC4)sc3n(Cc3ccc4cc[nH]c4c3)c2=O)s1` [Ex 11], for which the half-maximal inhibitory concentration (IC50) worked out at 160 nM.

On to `Cc1ncc(Cn2c(=O)c3cc(S(=O)(=O)NC4(C)CC4)sc3n(Cc3ccc4c(c3)OCC4)c2=O)s1` [Ex 13], for which the half-inhibitory concentration (IC50) was 41 nM.

On to `Cc1ncc(Cn2c(=O)c3cc(S(=O)(=O)NC4(C)CC4)sc3n(CC3CCOCC3)c2=O)s1` [Ex 14], for which the 50% inhibitory concentration (IC50) came out at 320 nM.

Turning to `Cc1ncc(Cn2c(=O)c3cc(S(=O)(=O)NC4(C)CC4)sc3n(CC3CCCO3)c2=O)s1` (stereo not drawn) [Ex 15], the IC50 amounted to 600 nM.

Turning to `Cc1ncc(Cn2c(=O)c3cc(S(=O)(=O)NC4(C)CC4)sc3n(CC3CCOC3)c2=O)s1` (stereo not drawn) [Ex 16], the half-maximal inhibitory concentration (IC50) worked out at 970 nM.

In the case of `Cc1ncc(Cn2c(=O)c3cc(S(=O)(=O)NC4(C)CC4)sc3n(CC3CCCOC3)c2=O)s1` (stereo not drawn) [Ex 17], the half-maximal inhibitory concentration (IC50) was found to be 470 nM.

With `Cc1ncc(Cn2c(=O)c3cc(S(=O)(=O)NC4(C)CC4)sc3n(Cc3nc4ccccc4[nH]3)c2=O)s1` [Ex 18], the IC50 was 580 nM.

Consider `Cc1ncc(Cn2c(=O)c3cc(S(=O)(=O)NC4(C)CC4)sc3n(Cc3cc4n(n3)CCOC4)c2=O)s1` [Ex 19], for which the IC50 amounted to 130 nM.

For `Cc1ncc(Cn2c(=O)c3cc(S(=O)(=O)NC4(C)CC4)sc3n(Cc3nc4c(o3)CCCC4)c2=O)s1` [Ex 20], the IC50 was determined as 110 nM.

With `CCNS(=O)(=O)c1cc2c(=O)n(Cc3cnc(C)s3)c(=O)n(CC3CC3)c2s1` [Ex 21], the IC50 was 75500 nM.

For `Cc1ncc(Cn2c(=O)c3cc(S(=O)(=O)NC(C)C)sc3n(CC3CC3)c2=O)s1` [Ex 22], the IC50 was found to be 93100 nM.

In the case of `CNS(=O)(=O)c1cc2c(=O)n(Cc3cnc(C)s3)c(=O)n(CC3CC3)c2s1` [Ex 23], the 50% inhibitory concentration (IC50) was 97000 nM.

For the compound `Cc1ncc(Cn2c(=O)c3cc(S(=O)(=O)NC4CC4)sc3n(CC3CC3)c2=O)s1` [Ex 24], the IC50 turned out to be 2220 nM.

For `Cn1cc(Cn2c(=O)c3cc(S(=O)(=O)NC4(C)CC4)sc3n(CC3CC3)c2=O)cn1` [Ex 26], the concentration for half-maximal inhibition (IC50) was 370 nM.

Consider `CC#CCn1c(=O)n(Cc2cnn(C)c2)c(=O)c2cc(S(=O)(=O)NC3(C)CC3)sc21` [Ex 27], for which the IC50 came to 250 nM.

Regarding `Cc1cc(Cn2c(=O)n(Cc3cnn(C)c3)c(=O)c3cc(S(=O)(=O)NC4(C)CC4)sc32)n(C)n1` [Ex 30], the IC50 amounted to 37 nM.

As for `Cc1cc(Cn2c(=O)n(Cc3cnn(C)c3)c(=O)c3cc(S(=O)(=O)NC4(C)CC4)sc32)[nH]n1` [Ex 31], the IC50 came to 29 nM.

In the case of `Cc1nn(C)cc1Cn1c(=O)n(Cc2cnn(C)c2)c(=O)c2cc(S(=O)(=O)NC3(C)CC3)sc21` [Ex 32], the half-inhibitory concentration (IC50) stood at 6990 nM.

For the compound `Cn1cc(Cn2c(=O)c3cc(S(=O)(=O)NC4(C)CC4)sc3n(Cc3cc4n(n3)CCOC4)c2=O)cn1` [Ex 33], the concentration for half-maximal inhibition (IC50) was 35 nM.

`Cn1cc(Cn2c(=O)c3cc(S(=O)(=O)NC4(C)CC4)sc3n(Cc3cncnc3)c2=O)cn1` [Ex 34]: the IC50 was found to be 300 nM.

As to `Cn1cc(Cn2c(=O)c3cc(S(=O)(=O)NC4(C)CC4)sc3n(Cc3cnc(C#N)s3)c2=O)cn1` [Ex 35], the IC50 is 35 nM.

For `Cn1cc(Cn2c(=O)c3cc(S(=O)(=O)NC4(C)CC4)sc3n(Cc3cnc4[nH]ccc4c3)c2=O)cn1` [Ex 37], the IC50 worked out at 9 nM.

In the case of `Cn1cc(Cn2c(=O)c3cc(S(=O)(=O)NC4(C)CC4)sc3n(Cc3ccc4[nH]ncc4c3)c2=O)cn1` [Ex 38], the half-maximal inhibitory concentration (IC50) came to 4.1 nM.

With `Cn1cc(Cn2c(=O)c3cc(S(=O)(=O)NC4(C)CC4)sc3n(Cc3ccc4[nH]c(=O)oc4c3)c2=O)cn1` [Ex 39], the IC50 was determined as 21 nM.

For the compound `Cn1cc(Cn2c(=O)c3cc(S(=O)(=O)NC4(C)CC4)sc3n(Cc3cc4c(cn3)COC4)c2=O)cn1` [Ex 41], the IC50 stood at 97 nM.

For `COc1cncc(Cn2c(=O)n(Cc3cnn(C)c3)c(=O)c3cc(S(=O)(=O)NC4(C)CC4)sc32)c1` [Ex 42], the IC50 came out at 40 nM.

`COc1cc(Cn2c(=O)n(Cc3cnn(C)c3)c(=O)c3cc(S(=O)(=O)NC4(C)CC4)sc32)ccn1` [Ex 43]: the concentration for half-maximal inhibition (IC50) came out at 29 nM.

In the case of `COc1ccc(Cn2c(=O)n(Cc3cnn(C)c3)c(=O)c3cc(S(=O)(=O)NC4(C)CC4)sc32)cn1` [Ex 44], the half-maximal inhibitory concentration (IC50) turned out to be 48 nM.

With `CN1Cc2cc(Cn3c(=O)n(Cc4cnn(C)c4)c(=O)c4cc(S(=O)(=O)NC5(C)CC5)sc43)ccc2C1=O` [Ex 45], the concentration for half-maximal inhibition (IC50) amounted to 13 nM.

Turning to `Cn1cc(Cn2c(=O)c3cc(S(=O)(=O)NC4(C)CC4)sc3n(Cc3ccc(F)cc3)c2=O)cn1` [Ex 46], the IC50 is 9.2 nM.

For the compound `Cn1cc(Cn2c(=O)c3cc(S(=O)(=O)NC4(C)CC4)sc3n(Cc3ccc(Cl)c(F)c3)c2=O)cn1` [Ex 47], the half-maximal inhibitory concentration (IC50) turned out to be 130 nM.

With `Cn1cc(Cn2c(=O)c3cc(S(=O)(=O)NC4(C)CC4)sc3n(Cc3ccc(F)c(Cl)c3)c2=O)cn1` [Ex 48], the IC50 was determined as 120 nM.

On to `Cn1cc(Cn2c(=O)c3cc(S(=O)(=O)NC4(C)CC4)sc3n(Cc3ccc(C4CC4)cc3)c2=O)cn1` [Ex 49], for which the IC50 is 95 nM.

`Cn1cc(Cn2c(=O)c3cc(S(=O)(=O)NC4(C)CC4)sc3n(Cc3ccc(OC(F)F)cc3)c2=O)cn1` [Ex 51]: the IC50 stood at 33 nM.

For `Cn1cc(Cn2c(=O)c3cc(S(=O)(=O)NC4(C)CC4)sc3n(Cc3ccc(OC(F)(F)F)cc3)c2=O)cn1` [Ex 52], the IC50 worked out at 100 nM.

For the compound `Cn1cc(Cn2c(=O)c3cc(S(=O)(=O)NC4(C)CC4)sc3n(Cc3ccc(C#N)cc3)c2=O)cn1` [Ex 53], the IC50 was determined as 52 nM.

For `CNc1ncc(Cn2c(=O)n(Cc3cnn(C)c3)c(=O)c3cc(S(=O)(=O)NC4(C)CC4)sc32)cn1` [Ex 54], the IC50 came out at 49 nM.

Consider `Cn1cc(Cn2c(=O)c3cc(S(=O)(=O)NC4(C)CC4)sc3n(Cc3cnn(CC(F)F)c3)c2=O)cn1` [Ex 56], for which the IC50 was determined as 36 nM.

Turning to `COCc1ncc(Cn2c(=O)n(Cc3cnn(C)c3)c(=O)c3cc(S(=O)(=O)NC4(C)CC4)sc32)s1` [Ex 58], the IC50 was 260 nM.

Turning to `Cn1cc(Cn2c(=O)c3cc(S(=O)(=O)NC4(C)CC4)sc3n(Cc3ccc4c(c3)CCO4)c2=O)cn1` [Ex 59], the IC50 is 22 nM.

For `Cn1cc(Cn2c(=O)c3cc(S(=O)(=O)NC4(C)CC4)sc3n(Cc3ccc4c(c3)CNC4=O)c2=O)cn1` [Ex 60], the IC50 was 24 nM.

With `Cn1cc(Cn2c(=O)c3cc(S(=O)(=O)NC4(C)CC4)sc3n(Cc3ccc4c(c3)C(=O)NC4)c2=O)cn1` [Ex 61], the 50% inhibitory concentration (IC50) was found to be 11 nM.

Regarding `CN1Cc2ccc(Cn3c(=O)n(Cc4cnn(C)c4)c(=O)c4cc(S(=O)(=O)NC5(C)CC5)sc43)cc2C1=O` [Ex 62], the concentration for half-maximal inhibition (IC50) came out at 29 nM.

On to `Cn1cc(Cn2c(=O)c3cc(S(=O)(=O)NC4(C)CC4)sc3n(Cc3cnc4c(c3)OCCO4)c2=O)cn1` [Ex 65], for which the IC50 amounted to 68 nM.

Take `Cn1cc(Cn2c(=O)c3cc(S(=O)(=O)NC4(C)CC4)sc3n(Cc3ccc4c(c3)CNC4)c2=O)cn1` [Ex 66]: the half-maximal inhibitory concentration (IC50) stood at 46 nM.

Consider `CN1Cc2ccc(Cn3c(=O)n(Cc4cnn(C)c4)c(=O)c4cc(S(=O)(=O)NC5(C)CC5)sc43)cc2C1` [Ex 67], for which the IC50 stood at 100 nM.

For `Cn1cc(Cn2c(=O)c3cc(S(=O)(=O)NC4(C)CC4)sc3n(Cc3ccc(OC4CCC4)cc3)c2=O)cn1` [Ex 69], the IC50 amounted to 280 nM.

For the compound `Cn1cc(Cn2c(=O)c3cc(S(=O)(=O)NC4(C)CC4)sc3n(Cc3ccc(F)c(C#N)c3)c2=O)cn1` [Ex 70], the IC50 was found to be 60 nM.

For the compound `CN(C)c1ccc(Cn2c(=O)n(Cc3cnn(C)c3)c(=O)c3cc(S(=O)(=O)NC4(C)CC4)sc32)cc1F` [Ex 71], the IC50 turned out to be 120 nM.

Take `CCN(C)c1ccc(Cn2c(=O)n(Cc3cnn(C)c3)c(=O)c3cc(S(=O)(=O)NC4(C)CC4)sc32)cc1F` [Ex 72]: the IC50 was 190 nM.

In the case of `CNc1ccc(Cn2c(=O)n(Cc3cnn(C)c3)c(=O)c3cc(S(=O)(=O)NC4(C)CC4)sc32)cc1F` [Ex 73], the half-maximal inhibitory concentration (IC50) is 17 nM.

Source of the values: patent US20240083908A1, “TETRAHYDROTHIENOPYRIMIDINESULFONAMIDE COMPOUNDS” (priority 2020, published 2024).
